The source of these data is patent US20220306617A1, “SUBSTITUTED 1,3-PHENYL HETEROARYL DERIVATIVES AND THEIR USE IN THE TREATMENT OF DISEASE” (NOVARTIS AG, priority 2019, published 2022).

For the experiment, the target named is T1, abc isoform of human TMEM16A channel expressed in CHO cells (Homo sapiens, UniProt Q5XXA6, DEL476-501).
T1 construct: expressed in transfected cells; host or cells: CHO cells, doxycycline-inducible expression under Blasticidin/Zeocin selection
T1 sequence (Q5XXA6 with tags, fused parts or gaps isoform Q5XXA6-5 DEL539-564): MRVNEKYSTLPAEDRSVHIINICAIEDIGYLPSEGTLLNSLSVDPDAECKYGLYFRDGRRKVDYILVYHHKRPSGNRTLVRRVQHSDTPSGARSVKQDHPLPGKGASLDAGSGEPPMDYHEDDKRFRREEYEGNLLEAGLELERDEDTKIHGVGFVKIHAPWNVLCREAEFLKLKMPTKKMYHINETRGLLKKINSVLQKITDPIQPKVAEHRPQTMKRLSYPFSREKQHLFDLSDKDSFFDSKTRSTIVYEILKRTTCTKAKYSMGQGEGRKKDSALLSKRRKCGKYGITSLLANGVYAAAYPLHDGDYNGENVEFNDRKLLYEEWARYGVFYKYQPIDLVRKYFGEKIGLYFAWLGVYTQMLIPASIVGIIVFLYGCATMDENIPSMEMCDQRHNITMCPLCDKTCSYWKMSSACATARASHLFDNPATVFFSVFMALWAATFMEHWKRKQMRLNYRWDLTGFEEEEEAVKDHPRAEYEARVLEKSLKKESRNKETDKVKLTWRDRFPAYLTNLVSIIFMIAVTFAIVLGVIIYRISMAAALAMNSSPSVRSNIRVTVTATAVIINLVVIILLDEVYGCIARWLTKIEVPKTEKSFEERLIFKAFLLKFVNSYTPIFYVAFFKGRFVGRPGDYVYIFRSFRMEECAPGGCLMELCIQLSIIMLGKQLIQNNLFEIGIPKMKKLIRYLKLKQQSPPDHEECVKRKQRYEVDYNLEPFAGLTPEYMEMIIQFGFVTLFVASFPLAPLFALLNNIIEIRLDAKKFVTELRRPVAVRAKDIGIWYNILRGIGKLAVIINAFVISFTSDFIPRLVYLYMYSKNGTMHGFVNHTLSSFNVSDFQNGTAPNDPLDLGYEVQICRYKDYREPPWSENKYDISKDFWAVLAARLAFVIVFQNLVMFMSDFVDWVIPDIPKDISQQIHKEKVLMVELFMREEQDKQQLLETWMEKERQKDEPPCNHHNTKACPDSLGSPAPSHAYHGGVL
Kind of experiment: Automated patch clamping (QPatch) assay to measure TMEM16A activity in whole-cell. Format: cell-based. The conditions noted are these: for EC50: CHO cells expressing human TMEM16A (abc), whole-cell automated patch clamp, Hill fit, read-out: TMEM16A QPATCH assay EC50 V3 EC50; for Emax: CHO, maximum current at highest dose relative to reference potentiator at maximal concentration (upper limit) and vehicle (lower limit), read-out: TMEM16A QPATCH assay EC50 V3 Assay Window (% TMEM16A max activation). Here is the method: Automated Patch Clamping Assay to Measure TMEM16A Activity in Whole-Cell
Chinese hamster ovary cells (CHO) cells expressing abc isoform of human TMEM16A channel (Ref) were grown in vented cell-culture flasks (Corning) containing cell culture medium (1×F-12 Ham, 10% FBS, 1% Penicillin-streptomycin, 5 μg/mL Blasticidin S HCl, 400 μg/mL Zeocin), maintained at 37° C. in an incubator with 5% C02, 95% 02 and 100% humidity. The cells were passaged every 2-3 days at 80-90% confluence by aspirating the cell culture medium, washing twice with 10 mL D-PBS then incubating with 4 mL Trypsin-EDTA for no longer than 5 minutes. Trypsin was neutralized with the addition of 32 mL growth medium to the cell suspension, the cells were counted using a viable-cell counter (Vi-CELL; Beckmann-Coulter) and new flasks were seeded at a cell density of 0.01, 0.02, or 0.05×10^6 cells per cm2 for 3, 2, or 1 day(s) growth, respectively. Cell suspension was diluted in the new 175 cm2 flask with 50 mL of growth medium. Doxycycline was used to induce the expression of TMEM16A channel protein and was added directly to the culture flask 18-24 hours in advance of assay at a final concentration of 1 μg/mL. Induced cells were washed with D-PBS and detached from their culture flasks by adding 10 mL of Detachin and incubating for 10 minutes. Once detached, 5 mL of QPatch assay medium (1×CHO-S-SFM II (Sigma), 25 mM HEPES) was added and the resultant cell suspension counted using the Vi-CELL viable cell counter. The optimal cell density for this QPatch assay is 2-5×1 06 cells/mL; re-adjusted as necessary with QPatch assay medium.
The ion channel activity of TMEM16A (abc) expressed in CHO cells was assed using an automated patch clamp system (Qpatch, Sophion). These systems use planar patch-clamp technology to enable high-resistance, continuous whole-cell recordings from multiple cells in parallel, whilst maintaining each individual cell as an isolated experiment. First, each well was primed with intracellular and extracellular solutions described below. Cells were spun down, washed and then resuspended using extracellular solution. Intracellular solution: 130 mM N-methyl-D-glucamine, 10 mM EGTA, 20 mM CaCl2, 1 mM MgCl2, 10 mM HEPES 10, 10 mM BAPTA, 99 mM Sucrose, 2 mM Mg-ATP, pH 7.3, 320 mOsm Extracellular solution: 130 mM N-methyl-D-glucamine, 10 mM EGTA, 20 mM CaCl2, 1 mM MgCl2, 10 mM HEPES 10, 10 mM BAPTA, 99 mM Sucrose, 2 mM Mg-ATP, pH 7.3, 320 mOsm. Resuspended cells were then added to each well and suction was applied from the intracellular side in order to position a cell on the chip aperture, form a high resistance (GO) seal and achieve a whole-cell recording configuration. Following successful whole cell access, cell membranes were maintained at a voltage of −70 mV until the voltage protocol is applied. From this voltage, membranes were depolarized to +70 mV for 1500 ms, and then hyperpolarized to […] before being depolarized again from −90 to +70 mV in a continuous ramp waveform. At the end of the ramp, the membrane voltage is stepped back to −70 mV until the next waveform was applied. Compounds were dissolved at 10 mM in 100% DMSO and then diluted into extracellular solution (0.3% DMSO final) to the desired final concentration. The assay lower and upper limit were defined as follow, average amplitude (nA) of the last 3 sweeps in the vehicle addition of each cell was considered the basal current (lower limit); the average maximum current response in 3 cells for a reference potentiator at maximal concentration (upper limit). Current values for each compound concentration were then plotted against […]. EC50 curves are fitted to concentration-response data using curve-fitting functions (Hill fit) within the QPatch software. Curve fitting is constrained between the lowest concentration (vehicle-only addition) and the highest current value measured within the concentration range. […]
(In general: In patch-clamp work, channel activity is measured electrically.)

As a reminder, the EC50 is the midpoint of the concentration-response curve. For `CCC(CC)NC(=O)c1cc(-c2cccc(-c3ncc(C(=O)NC(C)(C)CCc4ccccc4)o3)c2)[nH]n1` [Example 3.68, N-(2-Methyl-4-Phenylbutan-2-Yl)-2-(3-(3-(Pentan-3-Ylcarbamoylyl-Carbamoyl)-1H-Pyrazol-5-Yl)Phenyl)Oxazole-5-Carboxamide], the EC50 came to 160 nM and the Emax was 88%.

Regarding `CCC(CC)NC(=O)c1cnc(-c2cccc(-c3ncc(C(=O)NC(CC)CC)o3)c2)o1` [Example 18.0, 2,2′-(1,3-Phenylene)Bis(N-(Pentan-3-Yl)Oxazole-5-Carboxamide)], the EC50 came out at 140 nM and the Emax amounted to 97%.

On to `CCC(CC)NC(=O)c1cc(-c2cccc(-c3ncc(C(=O)N[C@@H](C)C4CCCCC4)o3)c2)[nH]n1` [Example 1.24, (S)-N-(1-Cyclohexylethyl)-2-(3-(3-(Pentan-3-Ylcarbamoyl)-1H-Pyrazol-5-yl)Phenyl)Oxazole-5-Carboxamide], for which the concentration for a half-maximal effect (EC50) came out at 180 nM and the Emax came to 83%.

For `CCC(CC)NC(=O)c1cnc(-c2cccc(-c3cc(C(=O)N4CCC(C)(OC)CC4)n[nH]3)c2)o1` [Example 3.47, 2-(3-(3-(4-Methoxy-4-Methylpiperidine-1-Carbonyl)-1H-Pyrazol-5-yl)Phenyl)-N-(Pentan-3-Yl)Oxazole-5-Carboxamide], the EC50 came to 940 nM and the Emax turned out to be 77%.

As to `CCC(CC)NC(=O)c1cnc(-c2cccc(-c3cc(C(=O)N4CCCC4C(C)C)n[nH]3)c2)o1` (stereo not drawn) [Example 3.31, 2-(3-(3-(2-Isopropylpyrrolidine-1-Carbonyl)-1H-Pyrazol-5-Yl)Phenyl)-N-(Pentan-3-Yl)Oxazole-5-Carboxamide], the 50% effective concentration (EC50) worked out at 180 nM and the Emax turned out to be 87%.

As to `COC(=O)[C@@H](NC(=O)c1cnc(-c2cccc(-c3cc(C(=O)N[C@@H](C)C4CC4)n[nH]3)c2)o1)C(C)C` [Example 1.7, (S)-Methyl 2-(2-(3-(3-(((S)-1-Cyclopropylethyl)Carbamoyl)-1H-Pyrazol-5-yl)Phenyl)Oxazole-5-Carboxamido)-3-Methylbutanoate], the EC50 came to 90 nM and the Emax was 69%.

For the molecule `C[C@H](NC(=O)c1nnc(-c2cccc(-c3ncc(C(=O)NC45CC6CC(CC(C6)C4)C5)o3)c2)[nH]1)C1CC1` [Example 12.16, (S)-N-(Adamantan-1-Yl)-2-(3-(5-((1-Cyclopropylethyl)Carbamoyl)-4H-1,2,4-Triazol-3-Yl)Phenyl)Oxazole-5-Carboxamide], the 50% effective concentration (EC50) worked out at 420 nM and the Emax turned out to be 85%.

`CCOC(=O)[C@@H](NC(=O)c1nnc(-c2cccc(-c3ncc(C(=O)N[C@@H](C)C4CC4)o3)c2)[nH]1)C(C)C` [Example 13.6, (S)-Ethyl 2-(5-(3-(5-(((S)-1-Cyclopropylethyl)Carbamoyl)Oxazol-2-Yl)Phenyl)-4H-1,2,4-Triazole-3-Carboxamido)-3-Methylbutanoate]: the EC50 was 370 nM and the Emax is 97%.

With `CCOC(=O)[C@@H](NC(=O)c1cc(-c2cccc(-c3ncc(C(=O)NC(CC)CC)o3)c2)nn1CCN1CCOCC1)C(C)C` [Example 7.0, (S)-Ethyl 3-Methyl-2-(1-(2-Morpholinoethyl)-3-(3-(5-(Pentan-3-Ylcarbamoyl)Oxazol-2-Yl)Phenyl)-1H-Pyrazole-5-Carboxamido)Butanoate], the concentration for a half-maximal effect (EC50) turned out to be 440 nM and the Emax came out at 175%.

In the case of `CCC(CC)NC(=O)c1cnc(-c2cccc(-c3cc(C(=O)NCC4CCC4)n[nH]3)c2)o1` [Example 3.5, 2-(3-(3-((Cyclobutylmethyl)Carbamoyl)-1H-Pyrazol-5-Yl)Phenyl)-N-(Pentan-3-Yl)Oxazole-5-Carboxamide], the EC50 was determined as 40 nM and the Emax is 124%.

On to `CCC(CC)NC(=O)c1cc(-c2cccc(-c3ncc(C(=O)N[C@@H](C)CC)o3)c2)[nH]n1` [Example 1.45, (S)-N-(Sec-Butyl)-2-(3-(3-(Pentan-3-Ylcarbamoyl)-1H-Pyrazol-5-Yl)Phenyl)Oxazole-5-Carboxamide], for which the half-maximal effective concentration (EC50) turned out to be 710 nM and the Emax came out at 75%.

As to `CCC(CC)NC(=O)c1cnc(-c2cccc(-c3cc(C(=O)NC(CC)C(C)C)n[nH]3)c2)o1` (stereo not drawn) [Example 3.29, 2-(3-(3-((2-Methylpentan-3-Yl)Carbamoyl)-1H-Pyrazol-5-Yl)Phenyl)-N-(Pentan-3-Yl)Oxazole-5-Carboxamide], the EC50 was 40 nM and the Emax came to 94%.

For `CCC(CC)NC(=O)c1cnc(-c2cccc(-c3nc(C(=O)NC(CC)CC)n(CCOCCOCCOC)n3)c2)o1` [Example 15.9, 2-(3-(1-(2-(2-(2-Methoxyethoxy)Ethoxy)Ethyl)-5-(Pentan-3-Ylcarbamoyl)-1H-1,2,4-Triazol-3-Yl)Phenyl)-N-(Pentan-3-Yl)Oxazole-5-Carboxamide], the EC50 was determined as 1000 nM and the Emax is 95%.

As to `C[C@@H](NC(=O)c1n[nH]c(-c2cccc(-c3ncc(C(=O)N[C@H](C)C4CC4)o3)c2)n1)C1CC1` [Example 13.2, N-((R)-1-Cyclopropylethyl)-2-(3-(3-(((R)-1-Cyclopropylethyl)Carbamoyl)-1H-1,2,4-Triazol-5-Yl)Phenyl)Oxazole-5-Carboxamide], the EC50 was 650 nM and the Emax amounted to 77%.

Turning to `CCC(CC)NC(=O)c1cnc(-c2cccc(-c3cc(C(=O)Nc4cccc(OC(F)(F)F)c4)n[nH]3)c2)o1` [Example 3.14, N-(Pentan-3-Yl)-2-(3-(3-((3-(Trifluoromethoxy)Phenyl)Carbamoyl)-1 H-Pyrazol-5-Yl)Phenyl)Oxazole-5-Carboxamide], the EC50 was determined as 490 nM and the Emax was found to be 43%.
